Reference: ChEMBL document CHEMBL3046898, “Synthesis and characterization of flurbiprofen hydrazide derivatives as potential anti-HCV, anticancer and antimicrobial agents” (2013)
Calls of active or inactive are those of the source. The rule behind the calls is not given here.

Columns and labels:
Pseudomonas aeruginosa [1] = assay: Antibacterial activity against Pseudomonas aeruginosa at 10 mg/ml after 24 hrs by disc diffusion method; type: functional, organism-based
Hepacivirus hominis = assay: Inhibition of HCV N-terminal His-tagged NS5B RNA dependent RNA polymerase expressed in Escherichia coli DH5alpha using poly rA/U12 as primer at 200 uM after 60 mins by liquid scintillation counting
Pseudomonas aeruginosa [2] = assay: Antibacterial activity against Pseudomonas aeruginosa at 6.25 to 200 ug/ml after 24 hrs by microwell dilution method; type: functional, organism-based
Candida parapsilosis = assay: Antifungal activity against Candida parapsilosis at 10 mg/ml after 48 hrs by disc diffusion method; type: functional, organism-based
Candida tropicalis = assay: Antifungal activity against Candida tropicalis at 10 mg/ml after 48 hrs by disc diffusion method; type: functional, organism-based
Staphylococcus aureus [3] = assay: Antibacterial activity against Staphylococcus aureus at 6.25 to 200 ug/ml after 24 hrs by microwell dilution assay; type: functional, organism-based
Pichia membranifaciens = assay: Antifungal activity against Pichia membranifaciens at 10 mg/ml after 48 hrs by disc diffusion method; type: functional, organism-based
Klebsiella aerogenes [4] = assay: Antibacterial activity against Enterobacter aerogenes at 6.25 to 200 ug/ml after 24 hrs by microwell dilution method; type: functional, organism-based
Candida albicans = assay: Antifungal activity against Candida albicans at 10 mg/ml after 48 hrs by disc diffusion method; type: functional, organism-based
Escherichia coli [5] = assay: Antibacterial activity against Escherichia coli at 10 mg/ml after 24 hrs by disc diffusion method; type: functional, organism-based
Proteus vulgaris [6] = assay: Antibacterial activity against Proteus vulgaris at 6.25 to 200 ug/ml after 24 hrs by microwell dilution method; type: functional, organism-based
Klebsiella aerogenes [7] = assay: Antibacterial activity against Enterobacter aerogenes at 10 mg/ml after 24 hrs by disc diffusion method; type: functional, organism-based
Escherichia coli [8] = assay: Antibacterial activity against Escherichia coli at 6.25 to 200 ug/ml after 24 hrs by microwell dilution method; type: functional, organism-based
Kluyveromyces marxianus = assay: Antifungal activity against Kluyveromyces marxianus at 10 mg/ml after 48 hrs by disc diffusion method; type: functional, organism-based
Salmonella paratyphi [9] = assay: Antibacterial activity against Salmonella paratyphi at 6.25 to 200 ug/ml after 24 hrs by microwell dilution method; type: functional, organism-based; conditions: Salmonella enterica subsp. enterica serovar Paratyphi A
Micrococcus luteus [10] = assay: Antibacterial activity against Micrococcus luteus at 10 mg/ml after 24 hrs by disc diffusion method; type: functional, organism-based
Staphylococcus cohnii [11] = assay: Antibacterial activity against Staphylococcus cohnii at 10 mg/ml after 24 hrs by disc diffusion method; type: functional
Micrococcus luteus [12] = assay: Antibacterial activity against Micrococcus luteus at 6.25 to 200 ug/ml after 24 hrs by microwell dilution method; type: functional, organism-based
[13] = system: Schwanniomyces occidentalis; assay: Antifungal activity against Schwanniomyces occidentalis at 10 mg/ml after 48 hrs by disc diffusion method; type: functional, organism-based
Nakaseomyces glabratus = assay: Antifungal activity against Candida glabrata at 10 mg/ml after 48 hrs by disc diffusion method; type: functional, organism-based
Staphylococcus aureus [14] = assay: Antibacterial activity against Staphylococcus aureus at 10 mg/ml after 24 hrs by disc diffusion method; type: functional
Micrococcus lylae [15] = assay: Antibacterial activity against Micrococcus lylae at 10 mg/ml after 24 hrs by disc diffusion method; type: functional, organism-based
Aspergillus = assay: Antifungal activity against Aspergillus at 10 mg/ml after 72 hrs by disc diffusion method; type: functional, organism-based
Photorhabdus luminescens [16] = assay: Antibacterial activity against Photorhabdus luminescens at 10 mg/ml after 24 hrs by disc diffusion method; type: functional, organism-based
[17] = system: Acinetobacter radioresistens; assay: Antibacterial activity against Acinetobacter radioresistens at 6.25 to 200 ug/ml after 24 hrs by microwell dilution method; type: functional, organism-based
Staphylococcus cohnii [18] = assay: Antibacterial activity against Staphylococcus cohnii at 6.25 to 200 ug/ml after 24 hrs by microwell dilution assay; type: functional, organism-based
Photorhabdus luminescens [19] = assay: Antibacterial activity against Photorhabdus luminescens at 6.25 to 200 ug/ml after 24 hrs by microwell dilution method; type: functional, organism-based
[20] = system: Acinetobacter radioresistens; assay: Antibacterial activity against Acinetobacter radioresistens at 10 mg/ml after 24 hrs by disc diffusion method; type: functional, organism-based
Salmonella paratyphi [21] = assay: Antibacterial activity against Salmonella paratyphi at 10 mg/ml after 24 hrs by disc diffusion method; type: functional, organism-based; conditions: Salmonella enterica subsp. enterica serovar Paratyphi A
Proteus vulgaris [22] = assay: Antibacterial activity against Proteus vulgaris at 10 mg/ml after 24 hrs by disc diffusion method; type: functional, organism-based
Micrococcus lylae [23] = assay: Antibacterial activity against Micrococcus lylae at 6.25 to 200 ug/ml after 24 hrs by microwell dilution method; type: functional, organism-based

SMILES | Activity (Pseudomonas aeruginosa [1]) | inhibition (Hepacivirus hominis) | Activity (Pseudomonas aeruginosa [2]) | Activity (Candida parapsilosis) | Activity (Candida tropicalis) | Activity (Staphylococcus aureus [3]) | Activity (Pichia membranifaciens) | Activity (Klebsiella aerogenes [4]) | Activity (Candida albicans) | Activity (Escherichia coli [5]) | Activity (Proteus vulgaris [6]) | Activity (Klebsiella aerogenes [7]) | Activity (Escherichia coli [8]) | Activity (Kluyveromyces marxianus) | Activity (Salmonella paratyphi [9]) | Activity (Micrococcus luteus [10]) | Activity (Staphylococcus cohnii [11]) | Activity (Micrococcus luteus [12]) | Activity [13] | Activity (Nakaseomyces glabratus) | further results
Cc1cc(C)c(/C=N/NC(=O)C(C)c2ccc(-c3ccccc3)c(F)c2)c(C)c1 (stereo unspecified) | inactive | 8% | inactive | inactive | inactive | inactive | inactive | inactive | inactive | inactive | inactive | inactive | inactive | inactive | inactive | inactive | inactive | inactive | inactive | inactive | Activity (Staphylococcus aureus [14]): inactive; Activity (Micrococcus lylae [15]): inactive; Activity (Aspergillus): inactive; Activity (Photorhabdus luminescens [16]): inactive; Activity [17]: inactive; Activity (Staphylococcus cohnii [18]): inactive; Activity (Photorhabdus luminescens [19]): inactive; Activity [20]: inactive; Activity (Salmonella paratyphi [21]): inactive; Activity (Proteus vulgaris [22]): inactive; Activity (Micrococcus lylae [23]): inactive
CC(C(=O)NN1C(=O)CSC1c1cccc(F)c1)c1ccc(-c2ccccc2)c(F)c1 (stereo unspecified) | inactive | 8% | inactive | inactive | inactive | inactive | inactive | inactive | inactive | inactive | inactive | inactive | inactive | inactive | inactive | inactive | inactive | inactive | inactive | inactive | Activity (Staphylococcus aureus [14]): inactive; Activity (Micrococcus lylae [15]): inactive; Activity (Aspergillus): inactive; Activity (Photorhabdus luminescens [16]): inactive; Activity [17]: inactive; Activity (Staphylococcus cohnii [18]): inactive; Activity (Photorhabdus luminescens [19]): inactive; Activity [20]: inactive; Activity (Salmonella paratyphi [21]): inactive; Activity (Proteus vulgaris [22]): inactive; Activity (Micrococcus lylae [23]): inactive
C=CCNC(=S)NNC(=O)C(C)c1ccc(-c2ccccc2)c(F)c1 (stereo unspecified) | inactive | 8% | inactive | inactive | inactive | inactive | inactive | inactive | inactive | inactive | inactive | inactive | inactive | inactive | inactive | inactive | inactive | inactive | inactive | inactive | Activity (Staphylococcus aureus [14]): inactive; Activity (Micrococcus lylae [15]): inactive; Activity (Aspergillus): inactive; Activity (Photorhabdus luminescens [16]): inactive; Activity [17]: inactive; Activity (Staphylococcus cohnii [18]): inactive; Activity (Photorhabdus luminescens [19]): inactive; Activity [20]: inactive; Activity (Salmonella paratyphi [21]): inactive; Activity (Proteus vulgaris [22]): inactive; Activity (Micrococcus lylae [23]): inactive
CC(C(=O)NN1C(=O)CSC1c1c(F)cccc1F)c1ccc(-c2ccccc2)c(F)c1 (stereo unspecified) | inactive | 8% | inactive | inactive | inactive | inactive | inactive | inactive | inactive | inactive | inactive | inactive | inactive | inactive | inactive | inactive | inactive | inactive | inactive | inactive | Activity (Staphylococcus aureus [14]): inactive; Activity (Micrococcus lylae [15]): inactive; Activity (Aspergillus): inactive; Activity (Photorhabdus luminescens [16]): inactive; Activity [17]: inactive; Activity (Staphylococcus cohnii [18]): inactive; Activity (Photorhabdus luminescens [19]): inactive; Activity [20]: inactive; Activity (Salmonella paratyphi [21]): inactive; Activity (Proteus vulgaris [22]): inactive; Activity (Micrococcus lylae [23]): inactive
CCCCNC(=S)NNC(=O)C(C)c1ccc(-c2ccccc2)c(F)c1 (stereo unspecified) | inactive | 70% | inactive | inactive | inactive | inactive | inactive | inactive | inactive | inactive | inactive | inactive | inactive | inactive | inactive | inactive | inactive | inactive | inactive | inactive | Activity (Staphylococcus aureus [14]): inactive; Activity (Micrococcus lylae [15]): inactive; Activity (Aspergillus): inactive; Activity (Photorhabdus luminescens [16]): inactive; Activity [17]: inactive; Activity (Staphylococcus cohnii [18]): inactive; Activity (Photorhabdus luminescens [19]): inactive; Activity [20]: inactive; Activity (Salmonella paratyphi [21]): inactive; Activity (Proteus vulgaris [22]): inactive; Activity (Micrococcus lylae [23]): inactive
CC(C(=O)N/N=C1\SCC(=O)N1Cc1ccccc1)c1ccc(-c2ccccc2)c(F)c1 (stereo unspecified) | inactive | 8% | inactive | inactive | inactive | inactive | inactive | inactive | inactive | inactive | inactive | inactive | inactive | inactive | inactive | inactive | inactive | inactive | inactive | inactive | Activity (Staphylococcus aureus [14]): inactive; Activity (Micrococcus lylae [15]): inactive; Activity (Aspergillus): inactive; Activity (Photorhabdus luminescens [16]): inactive; Activity [17]: inactive; Activity (Staphylococcus cohnii [18]): inactive; Activity (Photorhabdus luminescens [19]): inactive; Activity [20]: inactive; Activity (Salmonella paratyphi [21]): inactive; Activity (Proteus vulgaris [22]): inactive; Activity (Micrococcus lylae [23]): inactive
